In brackets after ≈: the same amount, converted by molar mass. Several values for one entry are separate records, joined by “and”; a condition that tells them apart may be missing. Equal entries are not always repeated. Where two headings read alike, the source gives them in different places.
Key:
Experiment in all cases: Broth microdilution MIC, Example 7 (NCL812 and analogues)
MRSA = type: cell-based, Staphylococcus aureus; details: for activity against MRSA among analogues: MIC testing, two MRSA strains; for MIC (μg/ml) at 24 hours, MRSA 1: MRSA 1, 24 hours; for MIC (μg/ml) at 24 hours, MRSA 2: MRSA 2, 24 hours; for MIC: Staphylococcus aureus; for MIC / MRSA: MRSA
Method in brief: (§1)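 MICs in μg/ml were read as growth inhibition by eye, checked at 600 nm absorbance against drug-free wells, following CLSI broth microdilution. Strains: two MRSA, two VRE; duplicates, repeated once more when results diverged beyond one dilution step.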

Escherichia coli = type: cell-based; details: E. coli, 24 hours; for MIC: Escherichia coli, read-out: MIC (μg/ml) at 24 hours E. coli
Pseudomonas aeruginosa = type: cell-based; details: for MIC: Pseudomonas aeruginosa, 24 h, read-out: MIC (μg/ml) at 24 hours P. aeruginosa, P. aeruginosa, 24 hours
VRE = type: cell-based, Enterococcus spp.; details: for activity against VRE among analogues: MIC testing, two VRE strains; for MIC (μg/ml) at 24 hours, VRE 1: VRE 1, 24 hours; for MIC (μg/ml) at 24 hours, VRE 2: VRE 2, 24 hours; for MIC: Enterococcus, 24 h
Method in brief: as §1

[1] = 24 h, read-out: MIC (μg/ml) at 24 hours MRSA 1, MRSA 1, 24 hours
[2] = 24 h, read-out: MIC (μg/ml) at 24 hours MRSA 2, MRSA 2, 24 hours
[3] = VRE, read-out: MIC (μg/ml) at 24 hours VRE 1, VRE 1, 24 hours
[4] = VRE, read-out: MIC (μg/ml) at 24 hours VRE 2, VRE 2, 24 hours
[5] = bioassay ranking, read-out: MRSA

Row | MIC (μg/ml) at 24 hours, MRSA 1 (MRSA) | MIC (μg/ml) at 24 hours, MRSA 2 (MRSA) | MIC (μg/ml) at 24 hours, E. coli (Escherichia coli) [µg/mL] | MIC (μg/ml) at 24 hours, P. aeruginosa (Pseudomonas aeruginosa) [µg/mL] | MIC (μg/ml) at 24 hours, VRE 1 (VRE) [µg/mL] | MIC (μg/ml) at 24 hours, VRE 2 (VRE) | MIC (MRSA; [1]) [µg/mL] | MIC (MRSA; [2]) [µg/mL] | MIC (Escherichia coli) [µg/mL] | MIC (Pseudomonas aeruginosa) [µg/mL] | MIC (VRE; [3]) [µg/mL] | MIC (VRE; [4]) [µg/mL] | MIC (MRSA; [5]) [µg/mL] | SMILES | activity against MRSA among analogues (MRSA) | activity against VRE among analogues (VRE) | MRSA (MRSA; bioassay ranking) [µg/mL] | VRE (VRE; bioassay ranking, VRE) [µg/mL]
1 | 128 µg/mL (≈ 334 µM) | 64 µg/mL (≈ 167 µM) | >128 | >128 | 32 (≈ 83.5 µM) | >128 µg/mL |  |  |  |  |  |  |  | CN(C)c1ccc(C=NNC(=N)NN=Cc2ccc(N(C)C)cc2O)c(O)c1 [NCL171] | greatest activity | greatest activity |  | 
2 |  | 32 µg/mL (≈ 88.1 µM) |  | 128 (≈ 352 µM) | 64 (≈ 176 µM) |  | 32 (≈ 88.1 µM) | 64 (≈ 176 µM) | 64 (≈ 176 µM) | 64 (≈ 176 µM) | 32 (≈ 88.1 µM) | 64 (≈ 176 µM) |  | Nc1nc(N/N=C/c2ccc(O)cc2)cc(N/N=C/c2ccc(O)cc2)n1 [NCL196, 4,4′-((1E,1′E)-((2-aminopyrimidine-4,6-diyl)bis(hydrazin-2-yl-1ylidene))bis(methanylylidene))diphenol] |  |  |  | 
3 | >128 µg/mL | >128 µg/mL | >128 | >128 | >128 | >128 µg/mL |  |  |  |  |  |  |  | CC(C)(C)c1ccc(/C=N/Nc2cc(N/N=C/c3ccc(C(C)(C)C)cc3)nc(N)n2)cc1 [NCL200] |  |  |  | 
4 | 8 µg/mL (≈ 18.7 µM) | 8 µg/mL (≈ 18.7 µM) |  |  |  |  | 4 (≈ 9.34 µM) | 4 (≈ 9.34 µM) | > 128 | > 128 | 64 (≈ 149 µM) | > 128 | 6 (≈ 14 µM) | C/C(=N\Nc1cc(N/N=C(\C)c2ccc(Cl)cc2)nc(N)n1)c1ccc(Cl)cc1 [NCL204] | greatest activity | greatest activity |  | 
5 | 4 µg/mL and 8 µg/mL | 4 µg/mL and 8 µg/mL | >128 | >128 | 64 (≈ 160 µM) | >128 µg/mL |  |  |  |  |  |  |  | Nc1nc(N/N=C/c2ccccc2Cl)cc(N/N=C/c2ccccc2Cl)n1 [NCL205] | greatest activity | greatest activity | 6 | 
6 | >128 µg/mL | >128 µg/mL | >128 | >128 | >128 | >128 µg/mL |  |  |  |  |  |  |  | C/C(=N\Nc1nc(N)nc(N/N=C(\C)c2ccc(Cl)cc2)n1)c1ccc(Cl)cc1 [NCL208] |  |  |  | 
7 | >128 µg/mL | >128 µg/mL and 128 µg/mL | >128 | >128 | 32 (≈ 65.3 µM) | 16 µg/mL (≈ 32.6 µM) |  |  |  |  |  |  |  | Nc1nc(N/N=C/c2ccc(Br)cc2)nc(N/N=C/c2ccc(Br)cc2)n1 [NCL212] |  | greatest activity |  | 24
8 | >128 µg/mL | >128 µg/mL | >128 | >128 | >128 | >128 µg/mL |  |  |  |  |  |  |  | Nc1nc(N/N=C/C2CCCCC2)nc(N/N=C/C2CCCCC2)n1 [NCL213] |  |  |  | 

The next lines start with the molecule.

Row | SMILES | MIC (μg/ml) at 24 hours, MRSA 1 (MRSA) | MIC (μg/ml) at 24 hours, MRSA 2 (MRSA) | MIC (μg/ml) at 24 hours, E. coli (Escherichia coli) [µg/mL] | MIC (μg/ml) at 24 hours, P. aeruginosa (Pseudomonas aeruginosa) [µg/mL] | MIC (μg/ml) at 24 hours, VRE 1 (VRE) [µg/mL] | MIC (μg/ml) at 24 hours, VRE 2 (VRE) | MIC (MRSA; [1]) [µg/mL] | MIC (MRSA; [2]) [µg/mL] | MIC (Escherichia coli) [µg/mL] | MIC (Pseudomonas aeruginosa) [µg/mL] | MIC (VRE; [3]) [µg/mL] | MIC (VRE; [4]) [µg/mL] | MIC (MRSA; [5]) [µg/mL] | activity against MRSA among analogues (MRSA) | activity against VRE among analogues (VRE) | MRSA (MRSA; bioassay ranking) [µg/mL] | VRE (VRE; bioassay ranking, VRE) [µg/mL]
9 | Nc1nc(NNC(=O)c2ccccc2)cc(NNC(=O)c2ccccc2)n1 [NCL194] | >128 µg/mL | >128 µg/mL | >128 | >128 | >128 | >128 µg/mL |  |  |  |  |  |  |  |  |  |  | 
10 | CC(C)(C)c1ccc(/C=N/Nc2cc(N/N=C/c3ccc(C(C)(C)C)cc3)nc(N)n2)cc1.Cl.Cl [NCL198] | >128 µg/mL | >128 µg/mL | >128 | >128 | >128 | >128 µg/mL |  |  |  |  |  |  |  |  |  |  | 
11 | Nc1nc(N/N=C/c2ccccc2)cc(N/N=C/c2ccccc2)n1 [NCL199] | 4 µg/mL (≈ 12.1 µM) |  |  |  |  |  | 2 (≈ 6.04 µM) | 4 (≈ 12.1 µM) | > 128 | > 128 | > 128 | > 128 | 3.5 (≈ 10.6 µM) | greatest activity |  |  | 
12 | CN(C)c1ccc(/C=N/Nc2cc(N/N=C/c3ccc(N(C)C)cc3)nc(N)n2)cc1 [NCL201] | 32 µg/mL and 64 µg/mL | 16 µg/mL and 32 µg/mL | >128 | >128 | >128 | >128 µg/mL |  |  |  |  |  |  |  | greatest activity |  |  | 
13 | Cc1ccc(/C=N/Nc2nc(N)nc(N/N=C/c3ccc(C)cc3)n2)cc1 [NCL206] | >128 µg/mL | >128 µg/mL | >128 | >128 | >128 | >128 µg/mL |  |  |  |  |  |  |  |  |  |  | 
14 | Nc1nc(N/N=C/c2ccccc2O)nc(N/N=C/c2ccccc2O)n1 [NCL207] | 16 µg/mL and 32 µg/mL | 32 µg/mL (≈ 87.8 µM) | >128 | >128 | >128 | >128 µg/mL |  |  |  |  |  |  |  | greatest activity |  | 28 | 
15 | Nc1nc(N/N=C/c2cccc(O)c2)nc(N/N=C/c2cccc(O)c2)n1 [NCL209] | >128 µg/mL | >128 µg/mL | >128 | >128 | >128 | >128 µg/mL |  |  |  |  |  |  |  |  |  |  | 
16 | Nc1nc(N/N=C/c2ccc(C(F)(F)F)cc2)nc(N/N=C/c2ccc(C(F)(F)F)cc2)n1 [NCL210] | >128 µg/mL | >128 µg/mL | >128 | >128 | 128 (≈ 273 µM) | 32 µg/mL and 64 µg/mL |  |  |  |  |  |  |  |  | greatest activity |  | 
17 | Nc1nc(N/N=C/c2ccc(O)cc2)nc(N/N=C/c2ccc(O)cc2)n1 [NCL211] | >128 µg/mL | >128 µg/mL | >128 | >128 | >128 | >128 µg/mL |  |  |  |  |  |  |  |  |  |  | 
18 | Nc1nc(N/N=C/c2ccccc2)nc(N/N=C/c2ccccc2)n1 [NCL214] | >128 µg/mL | >128 µg/mL | >128 | >128 | >128 | >128 µg/mL |  |  |  |  |  |  |  |  |  |  | 

From patent publication US10253002B2, “Compounds and methods of treating infections” (Neoculi Pty Ltd., priority 2013, dated 2019)
